# From ChEMBL document CHEMBL5291721, “A preclinical secondary pharmacology resource illuminates target-adverse drug reaction associations of marketed drugs” (Nat Commun, 2023)
# Legend:
# Acetylcholinesterase = Acetylcholinesterase (Homo sapiens, UniProt P22303); assay type: functional
# [1] = biological target: 3',5'-cyclic-AMP phosphodiesterase 4A (Homo sapiens, UniProt P27815); assay type: functional
# [2] = biological target: 5-hydroxytryptamine receptor 2B (Homo sapiens, UniProt P41595); assay type: functional, cell-based
# Prothrombin = Prothrombin (Homo sapiens, UniProt P00734); assay type: functional
# [3] = biological target: T1, Muscarinic acetylcholine receptor M2 (Homo sapiens, UniProt P08172)
# T1 sequence (P08172 whole entry): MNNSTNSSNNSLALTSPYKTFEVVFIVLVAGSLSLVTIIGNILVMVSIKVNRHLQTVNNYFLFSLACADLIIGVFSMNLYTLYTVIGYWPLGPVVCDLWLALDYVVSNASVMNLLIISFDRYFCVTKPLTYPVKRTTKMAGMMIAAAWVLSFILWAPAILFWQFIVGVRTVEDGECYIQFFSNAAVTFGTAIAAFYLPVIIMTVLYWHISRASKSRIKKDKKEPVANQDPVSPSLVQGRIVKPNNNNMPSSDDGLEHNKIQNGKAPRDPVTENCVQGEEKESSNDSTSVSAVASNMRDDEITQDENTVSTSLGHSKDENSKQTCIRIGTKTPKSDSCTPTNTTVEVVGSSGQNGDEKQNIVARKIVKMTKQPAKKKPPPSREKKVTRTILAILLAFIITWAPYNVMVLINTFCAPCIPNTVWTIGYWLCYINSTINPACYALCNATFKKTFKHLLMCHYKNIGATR
# [4] = biological target: Sodium-dependent dopamine transporter (Homo sapiens, UniProt Q01959)
# Thromboxane A2 receptor [5] = biological target: T2, Thromboxane A2 receptor (Homo sapiens, UniProt P21731); assay type: functional, cell-based
# T2 sequence (P21731 whole entry): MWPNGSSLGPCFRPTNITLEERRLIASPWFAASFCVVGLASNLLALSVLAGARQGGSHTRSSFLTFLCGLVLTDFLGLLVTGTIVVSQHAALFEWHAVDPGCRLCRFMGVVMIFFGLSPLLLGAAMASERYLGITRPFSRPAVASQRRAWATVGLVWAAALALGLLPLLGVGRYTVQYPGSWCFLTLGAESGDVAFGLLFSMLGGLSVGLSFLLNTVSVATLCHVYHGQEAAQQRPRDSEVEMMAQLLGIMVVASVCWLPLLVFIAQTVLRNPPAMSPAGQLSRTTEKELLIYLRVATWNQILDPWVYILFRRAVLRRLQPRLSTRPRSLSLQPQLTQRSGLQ
# [6] = biological target: cGMP-inhibited 3',5'-cyclic phosphodiesterase 3A (Homo sapiens, UniProt Q14432); assay type: functional
# Thromboxane A2 receptor [7] = biological target: T2, Thromboxane A2 receptor; assay type: functional, cell-based; remark: listed apart in the source
# Histamine H3 receptor = Histamine H3 receptor (Homo sapiens, UniProt Q9Y5N1)
# [8] = biological target: T3, Alpha-2A adrenergic receptor (Homo sapiens, UniProt P08913)
# T3 sequence (P08913 whole entry): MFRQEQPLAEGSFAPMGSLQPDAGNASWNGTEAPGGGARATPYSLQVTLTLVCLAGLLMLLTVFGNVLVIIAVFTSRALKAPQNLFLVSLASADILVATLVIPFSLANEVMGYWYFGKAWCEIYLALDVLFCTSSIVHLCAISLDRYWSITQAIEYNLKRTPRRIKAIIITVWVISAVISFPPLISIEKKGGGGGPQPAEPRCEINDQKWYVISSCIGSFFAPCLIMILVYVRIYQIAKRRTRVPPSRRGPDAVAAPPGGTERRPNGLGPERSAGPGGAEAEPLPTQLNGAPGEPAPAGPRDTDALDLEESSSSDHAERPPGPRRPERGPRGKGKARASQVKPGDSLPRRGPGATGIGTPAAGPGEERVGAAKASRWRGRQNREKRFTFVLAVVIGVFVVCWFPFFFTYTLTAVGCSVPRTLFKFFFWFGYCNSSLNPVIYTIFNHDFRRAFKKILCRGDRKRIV
# [9] = biological target: T4, 5-hydroxytryptamine receptor 1A (Homo sapiens, UniProt P08908)
# T4 sequence (P08908 whole entry): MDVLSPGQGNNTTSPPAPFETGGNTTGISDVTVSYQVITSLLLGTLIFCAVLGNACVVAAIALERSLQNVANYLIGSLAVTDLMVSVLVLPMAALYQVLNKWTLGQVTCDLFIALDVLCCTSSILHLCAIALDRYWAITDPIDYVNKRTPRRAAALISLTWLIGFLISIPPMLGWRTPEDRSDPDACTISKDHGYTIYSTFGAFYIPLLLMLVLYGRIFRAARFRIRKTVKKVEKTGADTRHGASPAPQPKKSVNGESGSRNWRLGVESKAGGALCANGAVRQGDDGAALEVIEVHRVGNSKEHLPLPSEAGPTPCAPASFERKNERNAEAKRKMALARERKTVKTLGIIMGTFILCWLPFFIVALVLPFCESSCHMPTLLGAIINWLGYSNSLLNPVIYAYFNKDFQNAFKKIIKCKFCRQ
# [10] = biological target: Voltage-gated inwardly rectifying potassium channel KCNH2 (Homo sapiens, UniProt Q12809); assay type: functional
# [11] = biological target: T5, Amine oxidase [flavin-containing] A (Homo sapiens, UniProt P21397); assay type: functional
# T5 sequence (P21397 whole entry): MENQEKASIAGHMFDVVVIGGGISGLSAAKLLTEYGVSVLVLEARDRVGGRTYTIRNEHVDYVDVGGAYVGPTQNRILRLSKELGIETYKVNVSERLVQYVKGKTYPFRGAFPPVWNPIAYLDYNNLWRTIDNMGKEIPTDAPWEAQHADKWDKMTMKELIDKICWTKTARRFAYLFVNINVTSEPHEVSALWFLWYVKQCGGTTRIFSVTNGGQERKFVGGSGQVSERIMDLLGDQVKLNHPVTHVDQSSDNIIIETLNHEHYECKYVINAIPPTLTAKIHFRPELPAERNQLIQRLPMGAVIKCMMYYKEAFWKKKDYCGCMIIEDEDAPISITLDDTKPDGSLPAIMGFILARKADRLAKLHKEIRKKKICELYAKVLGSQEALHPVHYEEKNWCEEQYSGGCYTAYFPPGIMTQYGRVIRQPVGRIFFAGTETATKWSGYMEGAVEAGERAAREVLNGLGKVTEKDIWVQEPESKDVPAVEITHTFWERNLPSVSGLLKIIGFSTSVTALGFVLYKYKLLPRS
# Also: assay procedure not described here.
# Sequence of Sodium-dependent dopamine transporter (Q01959 whole entry): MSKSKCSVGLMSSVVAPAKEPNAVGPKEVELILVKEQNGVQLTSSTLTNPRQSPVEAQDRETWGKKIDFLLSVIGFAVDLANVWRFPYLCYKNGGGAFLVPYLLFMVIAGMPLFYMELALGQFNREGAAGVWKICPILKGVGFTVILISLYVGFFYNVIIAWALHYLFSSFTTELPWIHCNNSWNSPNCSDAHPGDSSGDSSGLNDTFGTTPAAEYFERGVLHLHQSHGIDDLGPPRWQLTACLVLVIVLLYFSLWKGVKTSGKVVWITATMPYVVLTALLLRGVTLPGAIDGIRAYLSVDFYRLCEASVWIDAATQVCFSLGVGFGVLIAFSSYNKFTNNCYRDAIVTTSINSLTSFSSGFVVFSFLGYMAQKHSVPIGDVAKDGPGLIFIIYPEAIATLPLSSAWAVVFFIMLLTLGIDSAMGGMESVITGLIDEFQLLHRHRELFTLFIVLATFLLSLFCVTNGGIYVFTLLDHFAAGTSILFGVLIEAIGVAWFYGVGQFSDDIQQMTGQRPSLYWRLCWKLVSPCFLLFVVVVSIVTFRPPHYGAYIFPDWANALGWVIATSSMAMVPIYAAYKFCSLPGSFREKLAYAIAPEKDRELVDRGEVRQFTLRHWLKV
# Sequence of Histamine H3 receptor (Q9Y5N1 whole entry): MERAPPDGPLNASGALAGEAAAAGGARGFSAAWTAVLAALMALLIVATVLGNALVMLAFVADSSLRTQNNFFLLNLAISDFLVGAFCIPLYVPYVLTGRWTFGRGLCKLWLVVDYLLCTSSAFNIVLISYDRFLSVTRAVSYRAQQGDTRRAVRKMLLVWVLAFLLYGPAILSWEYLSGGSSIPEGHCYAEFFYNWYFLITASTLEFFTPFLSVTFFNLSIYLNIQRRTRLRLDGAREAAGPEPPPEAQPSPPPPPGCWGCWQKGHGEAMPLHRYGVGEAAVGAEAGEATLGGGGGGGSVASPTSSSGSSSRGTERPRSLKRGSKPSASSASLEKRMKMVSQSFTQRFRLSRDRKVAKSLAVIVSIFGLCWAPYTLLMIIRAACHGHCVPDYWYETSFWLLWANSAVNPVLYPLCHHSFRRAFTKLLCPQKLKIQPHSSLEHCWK
# Sequence of Acetylcholinesterase (P22303 whole entry): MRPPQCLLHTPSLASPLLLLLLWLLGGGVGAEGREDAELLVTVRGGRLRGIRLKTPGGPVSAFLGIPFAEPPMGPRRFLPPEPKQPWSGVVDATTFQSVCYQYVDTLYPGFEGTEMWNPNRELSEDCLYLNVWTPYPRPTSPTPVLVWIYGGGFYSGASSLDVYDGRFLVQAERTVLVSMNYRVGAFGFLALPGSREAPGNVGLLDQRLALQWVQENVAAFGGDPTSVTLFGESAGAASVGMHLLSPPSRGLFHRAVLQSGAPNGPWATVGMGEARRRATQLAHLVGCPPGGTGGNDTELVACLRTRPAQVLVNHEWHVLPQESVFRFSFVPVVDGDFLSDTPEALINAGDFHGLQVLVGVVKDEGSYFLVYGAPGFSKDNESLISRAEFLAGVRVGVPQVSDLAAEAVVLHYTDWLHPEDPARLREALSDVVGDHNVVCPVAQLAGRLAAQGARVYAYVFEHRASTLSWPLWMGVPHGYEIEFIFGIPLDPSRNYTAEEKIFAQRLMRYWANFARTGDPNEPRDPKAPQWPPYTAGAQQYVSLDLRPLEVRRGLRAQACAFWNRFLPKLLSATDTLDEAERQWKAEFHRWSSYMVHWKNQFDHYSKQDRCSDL
# Sequence of 5-hydroxytryptamine receptor 2B (P41595 whole entry): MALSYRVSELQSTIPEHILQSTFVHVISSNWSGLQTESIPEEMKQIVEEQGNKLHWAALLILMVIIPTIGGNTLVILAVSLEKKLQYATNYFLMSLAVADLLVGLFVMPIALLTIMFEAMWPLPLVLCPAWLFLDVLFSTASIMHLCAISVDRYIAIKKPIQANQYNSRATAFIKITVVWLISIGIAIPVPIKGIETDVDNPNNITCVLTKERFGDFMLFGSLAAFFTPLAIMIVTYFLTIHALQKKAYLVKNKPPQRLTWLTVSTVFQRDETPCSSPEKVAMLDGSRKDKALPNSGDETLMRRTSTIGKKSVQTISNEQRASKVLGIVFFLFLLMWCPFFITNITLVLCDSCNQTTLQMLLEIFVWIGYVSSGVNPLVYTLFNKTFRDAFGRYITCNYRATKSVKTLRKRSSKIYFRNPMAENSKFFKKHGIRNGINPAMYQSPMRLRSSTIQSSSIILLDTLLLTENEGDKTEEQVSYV
# Sequence of cGMP-inhibited 3',5'-cyclic phosphodiesterase 3A (Q14432 whole entry): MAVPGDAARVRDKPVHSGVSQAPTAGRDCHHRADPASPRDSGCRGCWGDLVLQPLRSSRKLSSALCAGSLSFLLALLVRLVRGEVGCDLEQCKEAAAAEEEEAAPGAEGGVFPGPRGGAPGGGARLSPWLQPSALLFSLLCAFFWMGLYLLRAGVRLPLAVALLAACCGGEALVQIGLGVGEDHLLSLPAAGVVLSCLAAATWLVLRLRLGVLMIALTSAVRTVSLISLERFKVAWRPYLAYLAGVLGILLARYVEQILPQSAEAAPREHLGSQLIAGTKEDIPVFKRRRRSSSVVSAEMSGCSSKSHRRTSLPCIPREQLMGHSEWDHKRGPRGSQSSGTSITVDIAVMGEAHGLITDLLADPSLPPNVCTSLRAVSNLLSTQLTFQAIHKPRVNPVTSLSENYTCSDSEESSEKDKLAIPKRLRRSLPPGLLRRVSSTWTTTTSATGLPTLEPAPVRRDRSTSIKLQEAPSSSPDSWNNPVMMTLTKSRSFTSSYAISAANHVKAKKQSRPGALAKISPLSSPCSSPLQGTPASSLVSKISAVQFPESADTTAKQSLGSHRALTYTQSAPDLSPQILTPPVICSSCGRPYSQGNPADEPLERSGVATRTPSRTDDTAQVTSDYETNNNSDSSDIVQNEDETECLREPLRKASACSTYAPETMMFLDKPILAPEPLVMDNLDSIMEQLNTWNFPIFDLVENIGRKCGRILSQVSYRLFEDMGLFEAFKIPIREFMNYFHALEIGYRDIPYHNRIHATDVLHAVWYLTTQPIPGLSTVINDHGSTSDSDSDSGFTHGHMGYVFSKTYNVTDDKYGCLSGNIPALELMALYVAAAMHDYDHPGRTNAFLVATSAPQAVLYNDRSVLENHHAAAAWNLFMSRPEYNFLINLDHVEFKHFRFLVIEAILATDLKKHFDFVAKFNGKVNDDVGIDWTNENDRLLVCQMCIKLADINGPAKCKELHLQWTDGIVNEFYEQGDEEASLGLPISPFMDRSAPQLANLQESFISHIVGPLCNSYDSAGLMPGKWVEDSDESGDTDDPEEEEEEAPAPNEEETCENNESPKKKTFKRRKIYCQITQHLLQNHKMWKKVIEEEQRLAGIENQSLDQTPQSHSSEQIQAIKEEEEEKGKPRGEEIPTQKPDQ
# Sequence of Voltage-gated inwardly rectifying potassium channel KCNH2 (Q12809 whole entry): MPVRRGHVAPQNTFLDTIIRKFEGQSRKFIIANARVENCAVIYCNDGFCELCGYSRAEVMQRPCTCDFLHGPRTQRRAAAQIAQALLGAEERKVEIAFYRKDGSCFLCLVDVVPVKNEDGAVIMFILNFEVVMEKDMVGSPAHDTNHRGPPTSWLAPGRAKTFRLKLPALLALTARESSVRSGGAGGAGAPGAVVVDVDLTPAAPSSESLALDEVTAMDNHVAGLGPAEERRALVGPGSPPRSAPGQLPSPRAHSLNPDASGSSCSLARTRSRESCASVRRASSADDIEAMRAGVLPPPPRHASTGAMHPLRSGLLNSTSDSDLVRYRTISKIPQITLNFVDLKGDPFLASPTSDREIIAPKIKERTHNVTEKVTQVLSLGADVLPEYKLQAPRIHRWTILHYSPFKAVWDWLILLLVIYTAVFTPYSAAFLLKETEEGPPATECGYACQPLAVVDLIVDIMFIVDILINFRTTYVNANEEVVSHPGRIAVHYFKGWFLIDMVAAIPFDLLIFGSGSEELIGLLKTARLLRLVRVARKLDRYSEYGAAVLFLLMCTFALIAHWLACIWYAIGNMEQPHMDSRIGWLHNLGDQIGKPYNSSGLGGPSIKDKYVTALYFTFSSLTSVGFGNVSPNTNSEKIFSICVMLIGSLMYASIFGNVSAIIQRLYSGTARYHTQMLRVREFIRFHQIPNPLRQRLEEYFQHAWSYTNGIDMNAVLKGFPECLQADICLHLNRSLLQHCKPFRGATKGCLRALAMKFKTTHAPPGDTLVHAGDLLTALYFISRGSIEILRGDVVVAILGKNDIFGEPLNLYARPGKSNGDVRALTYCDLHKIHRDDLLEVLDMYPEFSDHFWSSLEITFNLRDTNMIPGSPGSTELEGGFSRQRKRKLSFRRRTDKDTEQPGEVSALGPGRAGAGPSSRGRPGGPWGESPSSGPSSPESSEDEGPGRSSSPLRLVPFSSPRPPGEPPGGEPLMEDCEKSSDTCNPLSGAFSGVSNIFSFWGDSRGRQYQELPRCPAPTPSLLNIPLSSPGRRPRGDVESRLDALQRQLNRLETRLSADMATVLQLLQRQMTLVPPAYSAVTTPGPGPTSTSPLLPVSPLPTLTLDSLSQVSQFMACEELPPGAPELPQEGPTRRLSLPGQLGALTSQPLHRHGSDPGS
SMILES,AC50 (Acetylcholinesterase) [µM],AC50 [1] [µM],AC50 [2] [µM],AC50 (Prothrombin) [µM],AC50 [3] [µM],AC50 [4] [µM],AC50 (Thromboxane A2 receptor [5]) [µM],AC50 [6] [µM],AC50 (Thromboxane A2 receptor [7]) [µM],AC50 (Histamine H3 receptor) [µM],AC50 [8] [µM],AC50 [9] [µM],AC50 [10] [µM],AC50 [11] [µM]
Cc1cc2c(cc1S(N)(=O)=O)S(=O)(=O)CCC2,> 30,> 30,> 30,> 30,> 30,> 30,> 30,> 30,> 30,> 30,> 30,> 30,> 30,> 30
O=C(O)[C@@H]1C[C@@H](O)CN1,> 30,> 30,> 30,> 30,> 30,> 30,> 30,> 30,> 30,> 30,> 30,> 30,> 30,> 30
NC(=O)[C@@H]1CC[C@@H]2CN1C(=O)N2OS(=O)(=O)O [AVIBACTAM],> 30,> 30,> 30,> 30,> 30,> 30,> 30,> 30,> 30,> 30,> 30,> 30,> 30,> 30
CC(C)(C)NC(=O)N[C@H](C(=O)N1C[C@H]2[C@@H]([C@H]1C(=O)NC(CC1CCC1)C(=O)C(N)=O)C2(C)C)C(C)(C)C (stereo not given in full) [BOCEPREVIR],> 30,> 30,> 30,> 30,> 30,> 30,> 30,> 30,> 30,> 30,> 30,> 30,> 30,> 30
C=C1CC[C@H](O)C/C1=C/C=C1\CCC[C@]2(C)[C@@H]([C@H](C)CCCC(C)C)CC[C@@H]12 [CHOLECALCIFEROL],> 30,> 30,> 30,> 30,> 30,> 30,22.4,> 3,> 30,> 30,> 30,> 30,> 30,> 30
C[C@H](CCC(=O)O)[C@H]1CC[C@H]2[C@@H]3[C@H](O)C[C@@H]4C[C@H](O)CC[C@]4(C)[C@H]3C[C@H](O)[C@]12C [CHOLIC ACID],> 30,> 30,> 30,> 30,> 30,> 30,> 30,13.8,> 30,> 30,> 30,> 30,> 30,> 30
Cc1ncc2c(c1O)COC2c1ccc(Cl)cc1 (stereo not given) [CICLETANINE],> 30,> 30,> 30,> 30,> 30,> 30,> 30,> 30,> 30,> 30,> 30,> 30,> 30,> 30
N#Cc1ccc(Oc2ccc3c(c2)COB3O)cc1 [CRISABOROLE],> 30,0.337,> 30,> 30,> 30,> 30,> 30,14.7,> 30,> 30,> 30,> 30,> 30,> 30
CC(=O)O[C@H]1Cc2ccccc2N(C(N)=O)c2ccccc21 [ESLICARBAZEPINE ACETATE],> 30,> 30,> 30,> 30,> 30,> 30,> 30,> 30,> 30,> 30,> 30,> 30,> 30,> 30
Cc1ccc(S(=O)(=O)NC(=O)NC2CCCCC2)cc1 [GLYCYCLAMIDE],> 30,> 30,> 30,> 30,> 30,> 30,> 30,> 30,> 30,> 30,> 30,> 30,> 30,> 30
CN1CCCN(C(c2ccccc2)c2ccc(Cl)cc2)CC1 (stereo not given) [HOMOCHLORCYCLIZINE],> 30,> 30,> 30,> 30,0.149,0.229,> 3,> 30,11.8,> 30,1.35,13.7,0.81,> 30
COc1cc(C)c2c(Oc3cccc(C(F)(F)F)c3)c(OC)cc(NC(C)CCCN)c2n1 (stereo not given) [TAFENOQUINE],> 30,> 30,> 30,> 30,> 30,5.98,> 3,> 30,> 3,> 30,> 30,11.3,–,> 30
COc1ccc2c(C(=S)N(C)CC(=O)O)cccc2c1C(F)(F)F [TOLRESTAT],> 30,> 30,> 30,> 30,> 30,> 30,> 30,> 30,> 30,> 30,> 30,> 30,–,> 30
